Data taken from patent US20110052643A1, “COMPOUNDS FOR INFLAMMATION AND IMMUNE-RELATED USES” (Synta Pharmaceuticals Corp., priority 2008, published 2011).
One block for each molecule: values may come before it.

Tested on: IL-2 production
Assay: Inhibition of IL-2 production in PHA-activated Jurkat cells (ELISA)
Format: cell-based
Conditions: Homo sapiens, 20 h, PHA 2.5 μg/mL, IL-2 ELISA, values given as ranges
Description: Jurkat cells were placed in a 96 well plate (0.5 million cells per well in 1% FBS medium) then a test compound of this invention was added at different concentrations. After 10 minutes, the cells were activated with PHA (final concentration 2.5 μg/mL) and incubated for 20 hours at 37° C. under CO2. The final volume was 200 μL. Following incubation, the cells were centrifuged and the supernatants collected and stored at −70° C. prior to assaying for IL-2 production. A commercial ELISA kit (IL-2 Eli-pair, Diaclone Research, Besancon, France) was used to detect production of IL-2, from which dose response curves were obtained. The IC50 value was calculated as the concentration at which 50% of maximum IL-2 production after stimulation was inhibited versus a non-stimulation control. Inhibition of other cytokines, such as IL-4, IL-5, IL-13, GM-CSF, TNF-α, and INF-γ, can be tested in a similar manner using a commercially available ELISA kit for each cytokine.

SMILES: O=C(Nc1c(F)ccc(F)c1F)c1nc2c(s1)-c1cc(-n3ccnc3)ccc1CCC2 [Compound 126]
IC50: ≤ 30 nM

SMILES: O=C(Nc1ccc(F)c(F)c1F)c1nc2c(s1)-c1cc(-n3ccnc3)ccc1CCC2 [Compound 124]
IC50: 250 to 500 nM

SMILES: O=C(Nc1ccc(F)cc1F)c1nc2c(s1)-c1cc(-n3ccnc3)ccc1CCC2 [Compound 122]
IC50: 100 to 250 nM

SMILES: O=C(Nc1cnc2c(n1)CCCC1=C2CN(c2nccs2)CC1)c1c(F)cccc1F [Compound 91]
IC50: 30 to 100 nM

SMILES: O=C(Nc1c(F)cccc1F)c1cnc2c(c1)CCCc1ccc(-c3cccnc3)cc1-2 [Compound 45]
IC50: 100 to 250 nM

SMILES: Cc1cnccc1NC(=O)c1nc2c(s1)-c1cc(-n3ccnc3)ccc1CCC2 [Compound 132]
IC50: 100 to 250 nM

SMILES: O=C(Nc1c(F)cc(F)cc1F)c1nc2c(s1)-c1cc(-n3ccnc3)ccc1CCC2 [Compound 130]
IC50: 30 to 100 nM

Now from value to molecule:

IC50: ≤ 30 nM
SMILES: O=C(Nc1c(F)cccc1F)c1cc2c(s1)-c1cc(Br)ccc1CCC2 [Compound 1]

IC50: 30 to 100 nM
SMILES: O=C(Nc1c(F)cccc1F)c1nc2c(s1)-c1cc(-n3cnnc3)ccc1CCC2 [Compound 121]

IC50: > 1000 nM
SMILES: O=C(Nc1nc2c(s1)CCCc1ccc(Br)cc1-2)c1c(F)cccc1F [Compound 43]

IC50: 250 to 500 nM
SMILES: Cc1nccn1-c1ccc2c(c1)-c1sc(C(=O)Nc3c(F)cccc3F)nc1CCC2 [Compound 115]

IC50: ≤ 30 nM
SMILES: O=C(Nc1c(F)cccc1F)c1nc2c(s1)-c1cc(-n3ccnc3)ccc1CCC2 [Compound 113]

IC50: ≤ 30 nM
SMILES: O=C(Nc1c(F)cccc1F)c1cc2c(s1)-c1cc(-c3cccnc3)ccc1CCC2 [Compound 2]

IC50: ≤ 30 nM
SMILES: CCc1cn(-c2ccc3c(c2)-c2ncc(NC(=O)c4c(F)cccc4F)nc2CCC3)cn1 [Compound 134]

IC50: > 1000 nM
SMILES: COc1ccc2c(c1)CCCc1sc(NC(=O)c3c(F)cccc3F)nc1-2 [Compound 42]

IC50: 30 to 100 nM
SMILES: Cc1cn(-c2ccc3c(c2)-c2sc(C(=O)Nc4c(F)cccc4F)nc2CCC3)cn1 [Compound 117]

IC50: 100 to 250 nM
SMILES: Cc1nc2c(cc1C(=O)Nc1c(F)cccc1F)CCCc1ccc(-c3cccnc3)cc1-2 [Compound 48]
